4 compounds from patent US4414226A, “1,4-Naphtoquinone derivatives and their use in treating coccidiosis” (Fujisawa Pharmaceutical Co., Ltd., priority 1980, dated 1983) can be followed below.

The nature of one series: Stability. Format: physicochemical.
Another series is described as follows: Solubility. Format: physicochemical.
For a further series, the system named is Eimeria tenella. As to the kind of experiment: coccidium infection and treatment test in the chicken (Test example 1, Table 1). Also noted: Lesion score: scale not given here. Format: in vivo, Eimeria tenella; male white Leghorn chickens. The settings on record: for Lesion score: 3 times a day for 3 days, cecal lesions; for Weight gain index: noninfected group = 100. The procedure:
(1) A coccidium infection and treatment test in the chicken
Male white Leghorn chickens, aged 2 weeks and with a mean body weight of 100 g, were treated with two representative examples of product compound (I) and Monensin, a control drug, at the various dose levels indicated in Table 1. Each compound and drug was suspended in a 1% aqueous solution of gum arabic and 2 ml per dose of the suspension was administered 3 times a day for 3 consecutive days. Birds in the untreated control groups were given 2 ml per dose of a 1% aqueous solution of gum arabic only in otherwise the same manner.
Immediately after the first dosing, birds in the infected groups were orally inoculated with 3.0×10^4 /bird of oocysts of Eimeria tenella. Body weights were taken at the first treatment and on the 3rd day after the entire course of treatment to investigate changes in body weight. Immediately after the second taking of body weights, the birds were terminated and autopsied to examine and score the cecal lesions.
Dosage: The total dose (mg) given to each bird during the test period.
Weight gain index: These indices were computed with the body weight gain
of birds in the noninfected group being taken as 100.
Three birds were assigned to each of the infected-non-treated groups, non-infected groups, the monencin group and the (Ia-A) groups, and the weight gain indices were computed from the mean body weight values for 3 birds. The (Ia-B) groups each consisted of a bird only.

Where [1] appears, read: 30 minutes in 50° C. solution at pH 2.
Where [2] appears, read: 30 minutes in 50° C. solution at pH 10.
Setting [3] is: total dose 40 mg per bird, oral.

Take `COc1cc(C)cc(C(=O)O)c1C1=C(O)C(=O)c2c(O)cccc2C1=O` [(Ia-C), 2-(3,5-dihydroxy-1,4-naphthoquinon-2-yl)-3-methoxy-5-methylbenzoic acid]: the Stability result in the series “Stability” (setting [1]) and in “Stability” (setting [2]) was “Stable” in each case. For the same compound, the Solubility result is reported as “Partially soluble” in “Solubility” (acetone); “Readily soluble” in the series “Solubility” (ethanol); “Insoluble” in “Solubility” (ether); “Partially soluble” in the series “Solubility” (ethyl acetate); “Insoluble” in the series “Solubility” (hexane); “Readily soluble” in the series “Solubility” (methanol). In addition, the Solubility result in the series “Solubility” (water) is listed as “Insoluble”.

With `CC[C@@]1([C@@H]2O[C@@H]([C@H]3O[C@@](O)(CO)[C@H](C)C[C@@H]3C)C[C@@H]2C)CC[C@H]([C@]2(C)CC[C@]3(C[C@H](O)[C@@H](C)[C@@H]([C@@H](C)[C@@H](OC)[C@H](C)C(=O)O)O3)O2)O1` [Monensin, reference compound], the Lesion score in the series on Eimeria tenella (total dose 1.25 mg per bird) came to 4.0; with Eimeria tenella (total dose 2.5 mg per bird) it was 2.7; in the series on Eimeria tenella (total dose 5 mg per bird), 2.3; in the series with Eimeria tenella (total dose 10 mg per bird), 0; with Eimeria tenella (total dose 20 mg per bird) it was 0; in the series with Eimeria tenella (setting [3]), 0. Also, the Weight gain index is 99 with Eimeria tenella (total dose 1.25 mg per bird); 92 in the series with Eimeria tenella (total dose 2.5 mg per bird); 98 with Eimeria tenella (total dose 5 mg per bird); 68 in the series with Eimeria tenella (total dose 10 mg per bird); 51 in the series with Eimeria tenella (total dose 20 mg per bird); 41 in the series on Eimeria tenella (total dose 40 mg per bird).

Take `COc1cc(C)cc(C(=O)O)c1C1=CC(=O)c2c(O)cccc2C1=O` [(Ia-B), 2-(5-hydroxy-1,4-naphthoquinon-2-yl)-3-methoxy-5-methylbenzoic acid]: the Stability result in the series “Stability” (setting [1]) and in “Stability” (setting [2]) was “Stable” each time. Further, the Solubility result is “Readily soluble” in “Solubility” (acetone); “Insoluble” in the series “Solubility” (benzene); “Readily soluble” in “Solubility” (chloroform); “Readily soluble” in “Solubility” (ethanol); “Readily soluble” in “Solubility” (ethyl acetate); “Insoluble” in “Solubility” (hexane). Moreover, the figures for the Solubility result in the series “Solubility” (methanol) and in the series “Solubility” (water) were “Readily soluble” and “Insoluble”, respectively. For the same compound, the Lesion score in the series on Eimeria tenella (total dose 2.5 mg per bird) is 3; in the series with Eimeria tenella (total dose 5 mg per bird), 0; in the series on Eimeria tenella (total dose 10 mg per bird), 0; in the series on Eimeria tenella (total dose 20 mg per bird), 0; in the series with Eimeria tenella (setting [3]) it was 0. Besides, the Weight gain index in the series on Eimeria tenella (total dose 2.5 mg per bird) came out at 68; with Eimeria tenella (total dose 5 mg per bird) it was 80; in the series with Eimeria tenella (total dose 10 mg per bird) it was 95; with Eimeria tenella (total dose 20 mg per bird) it was 90; in the series with Eimeria tenella (total dose 40 mg per bird) it was 102.

Regarding `COc1cc(C)cc2c(=O)oc3c(c12)C(=O)c1cccc(O)c1C3=O` [(Ia-A), 8-hydroxy-1-methoxy-3-methyl-7,12-dihydro-5H-benzo[d]naphtho[2,3-b]pyran-5,7,12-trione], the Stability entry in “Stability” (acid solutions) and in “Stability” (alkaline solutions) was “Instable” throughout. Further, the Solubility entry in “Solubility” (acetone) is “Sparingly soluble”; in the series “Solubility” (chloroform) it was “Sparingly soluble”; in the series “Solubility” (dimethyl sulfoxide), “Partially soluble”; in “Solubility” (ethanol) it was “Sparingly soluble”; in “Solubility” (methanol), “Sparingly soluble”; in the series “Solubility” (tetrahydrofuran), “Partially soluble”. For the same compound, the Solubility result in the series “Solubility” (water) is “Insoluble”. The Lesion score is 2.0 in the series with Eimeria tenella (total dose 1.25 mg per bird); 2.0 with Eimeria tenella (total dose 2.5 mg per bird); 0.3 in the series on Eimeria tenella (total dose 5 mg per bird); 0 in the series on Eimeria tenella (total dose 10 mg per bird); 0 in the series with Eimeria tenella (total dose 20 mg per bird); 0 in the series with Eimeria tenella (setting [3]). Further, the Weight gain index turned out to be 108 with Eimeria tenella (total dose 1.25 mg per bird); 92 in the series with Eimeria tenella (total dose 2.5 mg per bird); 97 in the series with Eimeria tenella (total dose 5 mg per bird); 106 with Eimeria tenella (total dose 10 mg per bird); 108 in the series with Eimeria tenella (total dose 20 mg per bird); 95 with Eimeria tenella (total dose 40 mg per bird).
